Reference: patent US20260001910A1, “PEPTIDES AND USES THEREOF” (PreveCeutical Medical Inc., priority 2021, published 2026)
Where two headings read alike, the source gives them in different places.

Experiments:
[1] = Source text: (§1) The MTT (3-[4.5-dimethylthiazol-2-yl]-2,5=diphenyl tetrazolium bromide) assay is based on a process undertaken by living cells, involving the conversion of MTT into formazan crystals. This assay is used routinely to measure the in vitro cytotoxic effects of drugs on cell lines or primary patient cells (Van Meerloo et al., 2011).
(§2) The glioblastoma multiforme (GBM) cell lines used were U87 and U251 cells and patient derived cells grown as oncospheres (081024 cells). Human adherent GBM cell lines U87 and U251 were cultured in RPMI medium (Life Technologies Melbourne Australia) supplemented with 5% v/v FBS, 100 U/mL penicillin and 100 μg/mL streptomycin. 081024 cells were cultured in NeuroCult™ NS-A Proliferation medium with 0.2% (v/v) hepain, 20 ng/mL EGF and 10 ng/ml FGF.
(§3) 8×10^3 U87 and 7×10^3 U251 cells per well were seeded in 96 well plates in 200 μL serum-containing RPMI medium and incubated at 37° C. with 5% CO2 for 24 hours. After one wash with serum-free medium, 100 μL serum-free medium with different concentration of peptide SEQ ID NO:1 was added to each well. After 48 hours incubation, 10 μL of 0.5 mg/mL MTT was added and incubated for 2 hours at 37° C. Formazan crystals were dissolved by 200 μL/well dimethyl sulfoxide (DMSO) and shaking for 15 minutes. The UV absorbance was read with an iMark™ microplate absorbance reader at 595 nm (Bio-Rad Laboratories). Background absorbance was subtracted and results expressed as the % viability of control (untreated cells).

recombinant MMP-2 = molecular target: T1, recombinant MMP-2 (Homo sapiens, UniProt P08253); assay: MMP-2 Inhibitor Screening Assay Kit (colorimetric); type: biochemical
T1 construct: purchased ab139446
Protocol: MMP-2 is an important target for inhibitor screening due to its involvement in cancer growth, angiogenesis, and metastasis. The MMP-2 screening assay was carried out with a commercially available MMP-2 Inhibitor Screening Assay Kit (Colorimetric, Catalog: ab139446) based on the manufacturers protocol. This assay is based on quantification of recombinant MMP-2 activity using a colorimetric assay (MMP-2 degrades a chromogenic substrate). The assay provides NNGH (N-isobutyl-N-(4-methoxyphenylsulfonyl) glycyl hydroxamic acid), a small molecule inhibitor, as a positive control (NNGH). […] Each determination was run in duplicate.
Briefly, MMP Substrate and MMP Inhibitor were warmed to room temperature to thaw DMSO. MMP Inhibitor (NNGH), MMP-2 substrate and MMP-2 enzyme were diluted with assay buffer to required concentration. 20 μL of MMP-2 enzyme and MMP-2 inhibitor (peptides, Chlorotoxin and NNGH) was added, then 50 μL of assay buffer was added and the reaction mixture incubated at 37° C. for 1 h. After incubation, 10 μL of MMP Substrate was added to start reaction. The reactions were continuously read at 412 nm in a microplate reader. Data was recorded at 1 min. time intervals for 10 to 20 min. The data as was plotted as optical density (OD) versus time for each sample. The reaction velocity (V) was obtained in OD/min: determine the slope of a line fit to the linear portion of the data plot using an appropriate routine. Then using the equation above the inhibitor % activity remaining was calculated. The control was without inhibitor.

[2] = remark: listed apart in the source
Source text: as §1, §2, §3

[3] = test system: U87, U251 and 081024 cells; conditions: MTT, all three GBM cell lines
Source text: as §1, §2, §3

uPA = assay: Casein-plasminogen zymography of conditioned media (uPA production); type: cell-based, human; conditions: for uPA production: conditioned medium, compared to no-peptide control
Source text: (§4) To assess whether the peptide SEQ ID NO. 1 impacted MMP-2, MMP-9 and uPA production Zymography was used.
(§5) Zymography is a technique for studying hydrolytic enzymes on the basis of substrate degradation (Vandooren, J. et al. 2013). The in-gel zymography hydrolytic enzymes are separated by their molecular weights and detected by their ability to degrade a substrate. To detect the activity of MMP-2 and MMP-9 in various cell lines, conditioned media were collected in 3 independent experiments and analysed by gelatin zymography to quantify the level of gelatin digestion, which reflects MMP-2 and MMP-9 activity and production. Cascin-Plasminogen zymography was conducted to determine the activity level of uPA in the conditioned medium from various cell lines. Active uPA converts plasminogen into plasmin which then digests casein, thus clear bands where digestion of casein have occurred indirectly represent uPA activity.
(§6) The effect of the peptides on matrix protease production was tested using in-gel zymography. If the substrate included in the gel is gelatin, the enzymes detected are gelatinases: MMP-2 and MMP-9 (the latter is often of low abundance). If the gel contains casein and plasminogen, the enzymes tested are urokinase plasminogen activators (uPA); uPA is a therapeutic target in GBM.
(§7) An equal amount of protein from each sample was mixed with 5 μL of Laemmli buffer (0.01% Bromophenol Blue (W/V), 5% SDS (W/V), 22% glycerol (V/V), 14% 0.5 M Tris pH 6.8 (V/V)) and loaded onto a 10% polyacrylamide gel co-polymerized with 1 mg/ml of gelatin, and electrophoresed at 120V for 2 hours on ice. The gel was incubated in […] solution (Triton X-100 2.5% (V/V), 1 M Tris pH 7.5 5% (V/V), 0.5 M CaCl2) 1% (W/V) at room temperature overnight on an orbital shaker. The gel was incubated in a second solution for 3 hours at 37° C. The gel was then stained with Coomassie blue solution (Coomassie blue 0.25%, methanol 45%, acetic acid 10%) and destained in methanol 25% (V/V), acetic acid 10% (V/V) destaining solution until clear bands against the dark background appeared around 72 kDa and 95 kDa, representing MMP-2 and MMP-9 activity, respectively. Clear bands around 50 kDa appeared against the dark background representing uPA activity. The gels were scanned, and uPA, MMP-2 and MMP-9 were quantified by densitometry using NIH Image J software.
(§8) SEQ ID NO. 1 was compared to a control containing no peptide to evaluate whether the peptide can reduce the production of matrix proteinases. A reduction in the production of matrix proteinases may be anticipated to result in comparatively less degradation of the extra-cellular matrix and so this could be one pathway by which the invasion potential could be reduced.

MMP-2 = assay: Gelatin zymography of conditioned media (metalloprotease production); type: cell-based, human; conditions: for MMP-2 production: conditioned medium, compared to no-peptide control
Source text: as §4, §5, §6, §7, §8

MMP-9 = assay: as above; type: cell-based, human; conditions: conditioned medium, compared to no-peptide control
Source text: as §4, §5, §6, §7, §8

[4] = overall, versus no-peptide control

T1 sequence (P08253 110-446 limits assumed): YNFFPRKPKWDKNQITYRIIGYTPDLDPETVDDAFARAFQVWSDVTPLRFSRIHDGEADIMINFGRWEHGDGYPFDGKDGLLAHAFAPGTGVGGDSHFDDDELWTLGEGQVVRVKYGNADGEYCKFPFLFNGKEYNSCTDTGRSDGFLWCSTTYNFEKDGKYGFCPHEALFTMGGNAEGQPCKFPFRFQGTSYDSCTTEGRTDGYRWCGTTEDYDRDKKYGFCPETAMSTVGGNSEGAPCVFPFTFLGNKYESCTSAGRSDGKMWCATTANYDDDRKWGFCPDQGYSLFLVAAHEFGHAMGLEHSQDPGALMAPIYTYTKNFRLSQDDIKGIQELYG

Structure (SMILES): CC(C)C[C@@H](NC(=O)[C@@H](Cc1ccccc1)NC(=O)CNC(=O)CNC(=O)[C@H](N)Cc1ccc(O)cc1)C(=O)N[C@H](CCCNC(=N)N)C(=O)N[C@H](CCCNC(=N)N)C(N)=O [SEQ ID NO. 1, tyr-Gly-Gly-phe-leu-arg-arg-NH2]
- viability at 5 µM [1]: 97.9%
- viability at 50 µM [1]: 101%
- viability at 100 µM [1]: 95.9%
- activity at 1 µM (recombinant MMP-2; 1 μM, lower % = higher inhibitory activity, read-out: % inhibition (MMP-2 inhibitor screening)): 66.4%
- activity at 10 µM (recombinant MMP-2; 10 μM, lower % = higher inhibitory activity, read-out: % inhibition (MMP-2 inhibitor screening)): 61.8%
- activity at 100 µM (recombinant MMP-2; 100 μM, lower % = higher inhibitory activity, read-out: % inhibition (MMP-2 inhibitor screening)): 50.4%
- ability to inhibit MMP-2 activity (in words) (recombinant MMP-2; 1 to 100 μM): dose dependent ability to inhibit MMP-2 activity
- viability at 5 µM [2]: 100%
- viability at 50 µM [2]: 101%
- viability at 100 µM [2]: 94.4%
- highest concentration which did not significantly affect cell viability [3]: 0.5 mM
- uPA production (uPA; 081024 cells): 97.57 ± 13.7
- uPA production (uPA; U87 cells): 109.1 ± 12.41
- uPA production (uPA; U251 cells): 95.22 ± 12.83
- effect on production of uPA (in words) (uPA; [4]): did not decrease the production
- MMP-2 production (MMP-2; 081024 cells): 100.50
- MMP-2 production (MMP-2; U87 cells): 91.11
- MMP-2 production (MMP-2; U251 cells): 97.13
- effect on production of MMP-2 (in words) (MMP-2; [4]): did not decrease the production
- MMP-9 production (MMP-9; 081024 cells): 101.4
- MMP-9 production (MMP-9; U87 cells): 67.83
- MMP-9 production (MMP-9; U251 cells): 65.41
